Source: ChEMBL document CHEMBL1135158, “Pyrrolo[2,3-d]pyrimidines containing diverse N-7 substituents as potent inhibitors of Lck” (Bioorg Med Chem Lett, 2002)

Experiments:
Mus musculus [1] = assay: Compound was evaluated for the inhibition of TCR stimulated (anti-CD3 mAb) IL-2 production in mice following oral administration; type: functional
[2] = molecular target: T1, Tyrosine-protein kinase CSK (Homo sapiens, UniProt P41240); assay: Inhibition of human Csk tyrosine kinase
Angiopoietin-1 receptor [3] = molecular target: T2, Angiopoietin-1 receptor (Homo sapiens, UniProt Q02763); assay: Inhibition of TIE-2 kinase.
T2 sequence (Q02763 whole entry): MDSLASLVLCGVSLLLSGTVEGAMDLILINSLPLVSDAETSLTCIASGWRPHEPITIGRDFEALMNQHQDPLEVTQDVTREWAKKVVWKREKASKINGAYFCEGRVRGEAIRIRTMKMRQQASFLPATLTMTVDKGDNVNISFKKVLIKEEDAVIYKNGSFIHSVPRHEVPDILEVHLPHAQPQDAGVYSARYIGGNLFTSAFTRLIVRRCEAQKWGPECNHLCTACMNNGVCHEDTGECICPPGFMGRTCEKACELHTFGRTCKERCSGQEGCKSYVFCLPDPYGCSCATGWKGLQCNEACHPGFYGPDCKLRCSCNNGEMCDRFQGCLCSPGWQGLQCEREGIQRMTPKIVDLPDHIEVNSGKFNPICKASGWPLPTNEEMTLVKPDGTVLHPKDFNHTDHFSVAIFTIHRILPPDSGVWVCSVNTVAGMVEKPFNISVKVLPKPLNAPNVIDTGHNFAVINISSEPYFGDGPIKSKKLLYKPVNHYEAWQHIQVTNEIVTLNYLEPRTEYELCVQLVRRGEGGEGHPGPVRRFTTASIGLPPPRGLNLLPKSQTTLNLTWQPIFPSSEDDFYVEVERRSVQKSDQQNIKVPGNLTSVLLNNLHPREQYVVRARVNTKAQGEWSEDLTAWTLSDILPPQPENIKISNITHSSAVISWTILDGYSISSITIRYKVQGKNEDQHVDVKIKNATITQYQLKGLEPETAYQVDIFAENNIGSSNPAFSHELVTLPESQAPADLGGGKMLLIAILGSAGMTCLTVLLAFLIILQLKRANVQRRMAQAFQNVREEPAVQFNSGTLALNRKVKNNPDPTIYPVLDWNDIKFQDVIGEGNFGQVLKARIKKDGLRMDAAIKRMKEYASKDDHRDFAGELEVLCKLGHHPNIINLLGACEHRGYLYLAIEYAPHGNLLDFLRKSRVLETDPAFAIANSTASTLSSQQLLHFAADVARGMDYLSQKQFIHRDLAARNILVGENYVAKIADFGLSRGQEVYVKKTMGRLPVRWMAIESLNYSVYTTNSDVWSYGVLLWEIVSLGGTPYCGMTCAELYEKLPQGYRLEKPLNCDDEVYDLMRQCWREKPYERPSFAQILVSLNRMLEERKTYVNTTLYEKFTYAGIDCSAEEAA

[4] = molecular target: Tyrosine-protein kinase Lyn (Homo sapiens, UniProt P07948); assay: Inhibition of human p56 Lyn tyrosine kinase
Tyrosine-protein kinase Lyn, sequence (P07948 whole entry): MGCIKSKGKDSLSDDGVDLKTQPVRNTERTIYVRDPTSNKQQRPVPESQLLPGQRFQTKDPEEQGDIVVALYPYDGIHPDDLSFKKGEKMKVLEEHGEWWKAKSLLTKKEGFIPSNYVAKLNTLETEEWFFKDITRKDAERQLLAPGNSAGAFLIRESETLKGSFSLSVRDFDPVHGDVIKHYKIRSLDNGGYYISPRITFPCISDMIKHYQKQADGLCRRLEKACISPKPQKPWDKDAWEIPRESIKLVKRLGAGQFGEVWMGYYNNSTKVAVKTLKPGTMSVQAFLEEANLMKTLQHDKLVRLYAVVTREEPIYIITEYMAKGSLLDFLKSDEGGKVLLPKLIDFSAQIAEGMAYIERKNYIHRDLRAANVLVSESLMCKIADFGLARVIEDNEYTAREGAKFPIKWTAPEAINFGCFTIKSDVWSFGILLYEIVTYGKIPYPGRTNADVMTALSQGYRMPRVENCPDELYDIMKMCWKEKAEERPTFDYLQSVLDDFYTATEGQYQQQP

[5] = molecular target: Tyrosine-protein kinase Lck (Homo sapiens, UniProt P06239); assay: Inhibition of human p56 Lck tyrosine kinase (lck64-509)
Tyrosine-protein kinase Lck, sequence (P06239 whole entry): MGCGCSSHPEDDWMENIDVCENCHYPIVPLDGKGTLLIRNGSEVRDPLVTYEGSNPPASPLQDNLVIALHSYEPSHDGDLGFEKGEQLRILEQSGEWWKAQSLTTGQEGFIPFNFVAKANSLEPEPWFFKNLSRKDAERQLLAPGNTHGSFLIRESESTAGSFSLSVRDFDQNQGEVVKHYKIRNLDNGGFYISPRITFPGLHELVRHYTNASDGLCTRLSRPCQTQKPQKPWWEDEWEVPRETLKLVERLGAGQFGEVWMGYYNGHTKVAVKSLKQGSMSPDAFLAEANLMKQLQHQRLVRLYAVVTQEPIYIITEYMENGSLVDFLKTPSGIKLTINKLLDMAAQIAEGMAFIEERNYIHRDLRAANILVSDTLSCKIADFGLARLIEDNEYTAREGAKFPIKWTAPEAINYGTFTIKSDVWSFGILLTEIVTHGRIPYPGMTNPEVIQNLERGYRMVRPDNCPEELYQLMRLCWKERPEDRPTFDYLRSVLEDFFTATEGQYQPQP

[6] = molecular target: Tyrosine-protein kinase Fyn (Homo sapiens, UniProt P06241); assay: Inhibition of human p55 Fyn tyrosine kinase.
Tyrosine-protein kinase Fyn, sequence (P06241 whole entry): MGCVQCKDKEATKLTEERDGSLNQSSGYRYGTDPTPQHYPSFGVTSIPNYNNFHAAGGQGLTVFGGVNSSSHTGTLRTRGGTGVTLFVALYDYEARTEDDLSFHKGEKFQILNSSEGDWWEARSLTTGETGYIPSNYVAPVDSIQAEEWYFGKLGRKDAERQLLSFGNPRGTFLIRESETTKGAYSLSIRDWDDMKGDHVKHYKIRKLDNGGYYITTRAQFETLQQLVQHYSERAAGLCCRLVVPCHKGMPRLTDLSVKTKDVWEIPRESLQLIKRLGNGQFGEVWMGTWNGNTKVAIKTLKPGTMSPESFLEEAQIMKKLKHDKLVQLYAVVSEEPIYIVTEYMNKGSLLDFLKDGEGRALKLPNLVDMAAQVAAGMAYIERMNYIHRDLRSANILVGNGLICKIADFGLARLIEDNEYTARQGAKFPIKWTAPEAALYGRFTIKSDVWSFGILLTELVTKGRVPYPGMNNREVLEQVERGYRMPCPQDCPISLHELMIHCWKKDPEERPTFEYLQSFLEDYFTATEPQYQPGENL

[7] = molecular target: Tyrosine-protein kinase Blk (Homo sapiens, UniProt P51451); assay: Inhibition of human B lymphoid tyrosine kinase
Tyrosine-protein kinase Blk, sequence (P51451 whole entry): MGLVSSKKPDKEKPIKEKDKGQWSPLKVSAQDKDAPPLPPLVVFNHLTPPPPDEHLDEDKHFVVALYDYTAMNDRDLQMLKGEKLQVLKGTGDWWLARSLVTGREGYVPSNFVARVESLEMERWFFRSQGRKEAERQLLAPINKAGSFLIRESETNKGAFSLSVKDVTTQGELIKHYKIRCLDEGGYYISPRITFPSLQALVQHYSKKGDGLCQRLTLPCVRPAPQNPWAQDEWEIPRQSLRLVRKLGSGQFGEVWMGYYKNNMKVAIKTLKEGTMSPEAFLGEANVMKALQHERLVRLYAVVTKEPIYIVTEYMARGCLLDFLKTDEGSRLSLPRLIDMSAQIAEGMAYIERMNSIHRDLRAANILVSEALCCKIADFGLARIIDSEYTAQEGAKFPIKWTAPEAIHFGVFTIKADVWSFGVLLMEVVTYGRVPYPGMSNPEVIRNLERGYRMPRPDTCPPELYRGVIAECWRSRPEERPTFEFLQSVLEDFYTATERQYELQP

[8] = molecular target: Proto-oncogene tyrosine-protein kinase Src (Homo sapiens, UniProt P12931)
Proto-oncogene tyrosine-protein kinase Src, sequence (P12931 2-536 limits assumed): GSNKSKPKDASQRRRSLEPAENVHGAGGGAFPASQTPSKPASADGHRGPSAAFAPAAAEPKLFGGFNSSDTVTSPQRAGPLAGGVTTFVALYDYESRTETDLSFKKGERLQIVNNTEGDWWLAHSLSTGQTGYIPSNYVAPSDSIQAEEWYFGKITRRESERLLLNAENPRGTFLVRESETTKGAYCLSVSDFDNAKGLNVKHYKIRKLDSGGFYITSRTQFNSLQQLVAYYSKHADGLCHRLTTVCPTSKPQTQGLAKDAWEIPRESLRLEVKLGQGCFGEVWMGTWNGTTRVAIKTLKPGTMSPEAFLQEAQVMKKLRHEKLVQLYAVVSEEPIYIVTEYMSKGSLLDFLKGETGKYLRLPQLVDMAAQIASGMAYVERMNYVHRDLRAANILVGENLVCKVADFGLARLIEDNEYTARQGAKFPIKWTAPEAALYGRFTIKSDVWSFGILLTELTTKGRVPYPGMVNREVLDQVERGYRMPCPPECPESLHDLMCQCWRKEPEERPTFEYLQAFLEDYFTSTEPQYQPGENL
Description: Inhibition of Src protein tyrosine kinase

[9] = Half life period was determined after intravenous administration at a dose 5 mg/kg to male Sprague-Dawley rats; type: ADME, organism-based; parameters: dose 5 mg/kg, route intravenous; details: rat, in vivo
[10] = Maximum time constant was determined after oral administration at a dose 10 mg/kg to male Sprague-Dawley rats; type: ADME, organism-based; parameters: dose 10 mg/kg, route oral; details: rat, in vivo
[11] = Clearance was determined after intravenous administration at a dose 5 mg/kg to male Sprague-Dawley rats; type: ADME, organism-based; parameters: dose 5 mg/kg, route intravenous; details: rat, in vivo
[12] = Bioavailability was determined after intravenous administration at a dose 5 mg/kg to male Sprague-Dawley rats; type: ADME, organism-based; details: rat, in vivo
[13] = Volume of distribution was determined after intravenous administration at a dose 5 mg/kg to male Sprague-Dawley rats; type: ADME, organism-based; parameters: dose 5 mg/kg, route intravenous; details: rat, in vivo, read-out: Vz
[14] = Area under curve was determined after oral administration at a dose 10 mg/kg to male Sprague-Dawley rats; type: ADME, organism-based; parameters: dose 10 mg/kg, route oral; details: rat, in vivo
Homo sapiens = organism: Homo sapiens; assay: Inhibition of IL-2 production in whole blood assay; type: functional
Jurkat = assay: Inhibition of IL-2 production in anti-CD3 stimulated Jurkat cells; type: functional, cell-based; details: Homo sapiens
Mus musculus [15] = assay: Effective dose was evaluated in vivo for the inhibition of IFN-gamma production for 3 days peroral administration of the compound; type: functional; details: po, 72 h
[16] = molecular target: Platelet-derived growth factor receptor (Homo sapiens, UniProt P09619+P16234); assay: Inhibition of Platelet-derived growth factor receptor (Inactive at 1 mM ATP); type: protein-complex assay
[17] = molecular target: T1, Tyrosine-protein kinase CSK; assay: Inhibition of human Tyrosine-protein kinase CSK
[18] = Maximum plasma concentration was determined after oral administration at a dose 10 mg/kg to male Sprague-Dawley rats; type: ADME, organism-based; parameters: dose 10 mg/kg, route oral; details: rat
Angiopoietin-1 receptor [19] = molecular target: T2, Angiopoietin-1 receptor
[20] = Compound was evaluated for the pharmacokinetic parameter, maximum time constant; type: ADME, organism-based; details: mouse, in vivo
[21] = Compound was evaluated for the pharmacokinetic parameter, Terminal half life period; type: ADME, organism-based; details: mouse, in vivo
[22] = Compound was evaluated for the pharmacokinetic parameter, area under curve; type: ADME, organism-based; details: mouse, in vivo
[23] = Compound was evaluated for the pharmacokinetic parameter, maximum plasma concentration; type: ADME, organism-based; details: mouse
Mus musculus [24] = assay: Compound was evaluated for inhibition of interleukin - 2 (IL-2) production in anti -CD3 mAb stimulation in mice after intraperitoneal administration; type: functional; details: ip
Mus musculus [25] = assay: Compound was evaluated for inhibition of interleukin - 2 (IL-2) production in anti -CD3 mAb stimulation in mice after oral administration; type: functional
[26] = molecular target: Vascular endothelial growth factor receptor 2 (Homo sapiens, UniProt P35968); assay: Inhibition of Vascular endothelial growth factor receptor 2
Angiopoietin-1 receptor [27] = molecular target: T2, Angiopoietin-1 receptor; assay: Inhibition of TIE-2 kinase

T1 sequence (P41240 whole entry): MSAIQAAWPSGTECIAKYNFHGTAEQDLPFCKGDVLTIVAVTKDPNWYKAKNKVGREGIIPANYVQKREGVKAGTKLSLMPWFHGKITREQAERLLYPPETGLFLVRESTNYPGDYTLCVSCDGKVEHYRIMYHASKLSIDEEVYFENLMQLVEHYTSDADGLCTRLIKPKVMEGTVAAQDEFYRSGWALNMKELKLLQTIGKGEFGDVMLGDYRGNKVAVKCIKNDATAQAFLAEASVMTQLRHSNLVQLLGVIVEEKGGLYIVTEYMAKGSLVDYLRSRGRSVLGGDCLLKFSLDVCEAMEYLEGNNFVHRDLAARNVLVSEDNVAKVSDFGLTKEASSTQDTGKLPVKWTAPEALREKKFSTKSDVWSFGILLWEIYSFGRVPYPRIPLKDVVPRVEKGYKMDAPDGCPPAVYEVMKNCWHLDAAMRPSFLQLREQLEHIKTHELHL

CN1CCN([C@H]2CC[C@@H](n3cc(-c4ccc(Oc5ccccc5)cc4)c4c(N)ncnc43)CC2)CC1.O=C(O)/C=C\C(=O)O
ED50 (Mus musculus [1]): 2.5 mg/kg

CN1CCN([C@H]2CC[C@H](n3cc(-c4ccc(Oc5ccccc5)cc4)c4c(N)ncnc43)CC2)CC1
IC50 [2]: 4.27 µM
IC50 (Angiopoietin-1 receptor [3]): 5.85 µM
IC50 [4]: 0.43 µM
IC50 [5]: 0.24 µM
IC50 [6]: 2.03 µM
IC50 [7]: 0.37 µM
IC50 [8]: 1.19 µM

CN1CCN([C@H]2CC[C@@H](n3cc(-c4ccc(Oc5ccccc5)cc4)c4c(N)ncnc43)CC2)CC1
half-life [9]: 14.3 h
Tmax [10]: 4 h
clearance [11]: 5.3 L/h/kg
bioavailability [12]: 54%
Vd [13]: 140 L/kg
AUC [14]: 0.661 µg·h/mL
IC50 (Homo sapiens): 0.07 µM
IC50 (Jurkat): 0.025 µM
ED50 (Mus musculus [15]): 2.2 mg/kg
IC50 [16]: > 20 µM
IC50 [17]: 0.041 µM
IC50 [4]: 0.029 µM
IC50 [5]: 0.015 µM
IC50 [6]: 0.059 µM
Cmax [18]: 0.113 µM
IC50 [7]: 0.046 µM
IC50 [8]: 0.042 µM
IC50 (Angiopoietin-1 receptor [19]): 0.25 µM

NCCn1cc(-c2ccc(Oc3ccccc3)cc2)c2c(N)ncnc21
IC50 (Angiopoietin-1 receptor [19]): > 50 µM

Nc1ncnc2c1c(-c1ccc(Oc3ccccc3)cc1)cn2C1CCCC1
Tmax [20]: 0.25 h
half-life [21]: 7.7 h
AUC [22]: 0.0343 µg·h/mL
Cmax [23]: 0.028 µM
ED50 (Mus musculus [24]): 4 mg/kg
ED50 (Mus musculus [25]): 25 mg/kg
IC50 [26]: 4.44 µM
IC50 [5]: 0.1 µM
IC50 (Angiopoietin-1 receptor [27]): 9.07 µM
IC50 [8]: 0.56 µM
